According to PubChem BioAssay (NCI):
Where “and” joins values, the source holds several entries; their conditions need not be identical. Equal entries are not always repeated.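 Each compound was tested at five concentrations against cells in 96-well plates for 48 hours. GI50: concentration for 50% inhibition of growth. The concentration for full growth arrest is given as TGI.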

Legend:
Experiment in all cases: growth of human tumour cells (NCI), 48 h
[1] = test system: SK-OV-3 ovarian
[2] = test system: KM12 colon
[3] = test system: SK-MEL-28 melanoma
[4] = test system: SF-295 CNS
[5] = test system: OVCAR-5 ovarian
[6] = test system: M14 melanoma
[7] = test system: NCI-H460 lung
[8] = test system: MDA-MB-231 breast
[9] = test system: NCI-H226 lung
[10] = test system: HOP-92 NSCLC

SMILES | GI50 [1] [nM] | TGI [1] | GI50 [2] [µM] | TGI [2] | GI50 [3] [nM] | TGI [3] | GI50 [4] [µM] | TGI [4] | GI50 [5] [nM] | TGI [5] | GI50 [6] [nM] | TGI [6] | GI50 [7] [nM] | TGI [7] | GI50 [8] [nM] | TGI [8] | GI50 [9] [µM] | TGI [9] | GI50 [10] [nM] | TGI [10]
COc1cc(C2CC(c3ccc(C)cc3)=NN2C=O)ccc1Oc1ccnc2cc(Cl)ccc12 (stereo not given) | 7200 | > 50 µM | > 50 | > 50 µM | > 50000 | > 50 µM | 4.41 | 23.7 µM | > 50000 | > 50 µM | 14200 | > 50 µM | > 50000 | > 50 µM | 4230 | 43.8 µM | 1.81 | > 50 µM | 9100 | > 50 µM
O=C(CCCCCCSc1nc(-c2ccccc2)cc(-c2ccc(Cl)cc2)n1)NO | 2360 | 6.04 µM | 2.97 | 13.5 µM | 2940 | 12.1 µM | 2.45 | 6.7 µM | 1560 | 5.42 µM | 1950 | 6.53 µM | 1220 | 10.2 µM | 2650 | 8.96 µM | 2.59 | 11.8 µM | 1750 | 5.44 µM
Cc1ccc(CNc2c3ccccc3nc3ccccc23)cc1 | 2590 | 10.8 µM | 3.4 | 12.9 µM | 1840 | 4.16 µM | 2.53 | 8.87 µM | 1990 | 8.08 µM | 1530 | 3.24 µM | 2020 | 5.26 µM | 1800 | 4.52 µM | 1.87 | 5.12 µM | 1360 | 5.05 µM
COc1cc([C@H]2c3cc4c(cc3O[C@@]3(O)COC(=O)[C@@H]23)OCO4)cc(OC)c1OC |  | > 100 µM |  | > 100 µM |  | > 100 µM |  | > 100 µM |  | > 100 µM |  | > 100 µM |  | > 100 µM |  | > 100 µM |  | > 100 µM |  | > 100 µM
N#Cc1c(-c2nc3ccccc3s2)c(=O)oc2cc(O)ccc12 |  |  |  | 73 µM |  | > 100 µM |  | > 100 µM |  | > 100 µM |  | > 100 µM |  | > 100 µM |  | 82.5 µM |  | > 100 µM |  | 46.3 µM
COc1ccc(C(=O)/C(Br)=C/C(=O)O)cc1 |  | 358 µM and 299 µM |  | 48.8 µM and 48 µM |  | 89.1 µM and 89.4 µM | 33.5 | 175 µM and 140 µM |  | 131 µM and 129 µM | 52900 | 79.3 µM and 120 µM | 14400 | 300 µM and 72 µM | 53700 | 84 µM and 115 µM | 39.1 | 148 µM and 145 µM |  | 93.7 µM and 93.6 µM
CS(=O)(=O)CCNCc1nc(-c2ccc3ncnc(Nc4ccc(F)c(Cl)c4)c3c2)cs1 | 1960 | 11 µM | 21.1 | > 25 µM | > 20200 | > 25 µM | > 25 | > 25 µM | > 25000 | > 25 µM | 21500 | > 25 µM | 18700 | > 25 µM | 23600 | > 25 µM | > 18.1 | > 25 µM | 9820 | > 25 µM
Cc1c2c(nn1-c1ccc(S(=O)(=O)NC(=S)Nc3ccccc3)cc1)-c1ccccc1CC2 | > 50000 | > 50 µM | 25.6 | > 50 µM | > 50000 | > 50 µM | > 50 | > 50 µM | > 50000 | > 50 µM | > 50000 | > 50 µM |  |  | > 50000 | > 50 µM | > 50 | > 50 µM | > 50000 | > 50 µM
O=C(NNc1nc(Cl)nc(N2CCN(C(c3ccccc3)c3ccccc3)CC2)n1)c1ccccc1 | 2470 | 6.94 µM | 4.76 | > 100 µM | 1750 | 3.25 µM | 10.8 | 23.1 µM | 12700 | 40.7 µM | 1590 | 3.12 µM | 1930 | 3.77 µM | 1960 | 3.77 µM | 7.25 | 25.8 µM | 1720 | 3.68 µM
COc1ccc2nc(N/N=C(\C)c3ccccn3)cc(C)c2c1 | 269 | 2.08 µM | 0.321 | 1.6 µM | 445 | 1.68 µM | 0.0487 | 0.391 µM | 571 | 3.68 µM | 212 | 1.13 µM | 118 | 1.13 µM | 232 | 1.87 µM | 0.222 | 1 µM | 169 | 2.55 µM
COc1cc2c(cc1OC)C(=O)/C(=C/c1cccc(OCC(=O)c3ccccc3)c1)C2 | 99200 | > 100 µM | 7.79 | > 100 µM | 58400 | > 100 µM | 5.06 | 40.8 µM | 73900 | > 100 µM | 34200 | > 100 µM | 13300 | 91.9 µM | 23800 | > 100 µM | 20.2 | > 100 µM | 569 | 27.8 µM
O=C1NCc2ccc3c(-c4cccc(Cl)c4)c[nH]c3c21 | 339 | > 50 µM | 0.196 | > 29.7 µM | 2210 | > 50 µM | 0.199 | > 50 µM | 1620 | > 50 µM | 147 | > 50 µM | 201 | > 38.2 µM | 838 | > 25.7 µM | 28.9 | > 50 µM | 3220 | > 50 µM
COc1cc(C2C=C(c3cccc(NC(C)=O)c3)Nc3ncnn32)cc(OC)c1OC (stereo not given) | 903 | > 100 µM | 0.396 | > 100 µM | 290 | > 100 µM | 0.229 | > 32.8 µM |  | > 100 µM | 392 | > 100 µM | 2140 | > 100 µM | 2110 | > 55.9 µM | 0.667 | > 100 µM |  | > 65.1 µM
